{
  "source": "patent US9956181B2",
  "about": "“Composition of nanoformulated lycopene and method of using the composition” (priority 2015, dated 2018)",
  "key": {"[1]": {"test_system": "ovariectomized (OVX) rats", "assay": "OVX rat study: serum minerals, enzymes and hormones", "assay_type": "in vivo, Wistar rats", "conditions": "OVX rats; lycopene 45 mg/kg/day; ALN 2.0 μg/kg/day sc; P<0.001", "method": "(§1) A total of 264 Wistar female rats, ˜6 months old, were supplied by the Animal House at King Fahd Medical Research Center (KFMRC), KAU. Rats were housed in individual cages and maintained at 22° C. with a 12-h light/dark cycle. During the study period, rats were given standard rodent chow diet ad libitum (commercial rat cubes containing approximately 18% protein, 3% fat, 77% carbohydrate, and 2% of an inorganic-salt mixture with a vitamin supplement by weight, supplied by Grain Silos and Flour Mills Organization, Jeddah, Saudi Arabia) and water until the onset of intervention. Prior to surgery, rats were anesthetized with ketamine [(10% ketamine hydrochloride (80 mg/kg body weight), Cayman Chemical, Michigan, USA] and xylazine [(2% xylazine hydrochloride, 10 mg/kg body weight), Sigma-Aldrich Co., St. Louis, USA]. A single longitudinal skin incision was made on the dorsal midline at the level of the kidneys and both ovaries were ligated and removed to produce an ovariectomy in all OVX group animals. A SHAM-operated group, acting as a negative control for the effect of ovariectomy on bone parameters, underwent bilateral laparotomy, during which the ovaries were exposed but remained intact. […] The lycopene-supplemented groups were given lycopene (15, 30 and 45 mg/kg body weight per day) dissolved in corn oil by daily intra-gastric administration for the experimental period of 12 weeks. The SHAM, OVX and ALN control groups were given the same volume of corn oil without lycopene treatment. […] A 12-week randomized placebo-controlled study in order to examine the protective effects of lycopene supplementation on bone mass and fragility in OVX rats was concluded. Prior to surgery, body weight and bone mineral density (BMD) were obtained for all animals. Rats were randomized using a computer-generated randomization code into one of six groups: (1) sham-operated (SHAM; n=44); (2) ovariectomized control (OVX; n=44); (3) OVX lycopene-supplemented (15 mg/kg body weight per day) (n=44); (4) OVX lycopene-supplemented (30 mg/kg body weight per day) (n=44); (5) OVX lycopene-supplemented (45 mg/kg body weight per day) (n=44) and (6) OVX alendronate-treated (ALN) [2.0 μg/kg body weight per day subcutaneously (sc)] (n=44). Alendronate is an anti-resorptive agent for the treatment of osteoporosis and was used as a positive therapy control. […] All OVX groups were pair-fed with the SHAM group throughout the study to avoid the possible effects of ovariectomy-induced over-consumption and subsequent excessive weight gain. Treatment started 1 week after the surgery: this period of rest allowed the rats to recover from the stress associated with the surgery. […] Peripheral Quantitative CT (pQCT) scans were made of the proximal tibia metaphysis and the diaphysis. […]"}, "[2]": {"test_system": "ovariectomized (OVX) rats", "assay": "OVX rat study: biochemical bone turnover markers", "assay_type": "in vivo, Wistar rats", "conditions": "ALN 2.0 μg/kg/day sc", "method": "as §1"}, "[3]": {"test_system": "ovariectomized (OVX) rats", "assay": "OVX rat study: in vivo pQCT densitometry of tibia metaphysis", "parameters": "species or system Wistar rats", "conditions": "12 weeks, versus OVX control, P<0.001", "method": "(§2) A total of 264 Wistar female rats, ˜6 months old, were supplied by the Animal House at King Fahd Medical Research Center (KFMRC), KAU. Rats were housed in individual cages and maintained at 22° C. with a 12-h light/dark cycle. During the study period, rats were given standard rodent chow diet ad libitum (commercial rat cubes containing approximately 18% protein, 3% fat, 77% carbohydrate, and 2% of an inorganic-salt mixture with a vitamin supplement by weight, supplied by Grain Silos and Flour Mills Organization, Jeddah, Saudi Arabia) and water until the onset of intervention. Prior to surgery, rats were anesthetized with ketamine [(10% ketamine hydrochloride (80 mg/kg body weight), Cayman Chemical, Michigan, USA] and xylazine [(2% xylazine hydrochloride, 10 mg/kg body weight), Sigma-Aldrich Co., St. Louis, USA]. A single longitudinal skin incision was made on the dorsal midline at the level of the kidneys and both ovaries were ligated and removed to produce an ovariectomy in all OVX group animals. A SHAM-operated group, acting as a negative control for the effect of ovariectomy on bone parameters, underwent bilateral laparotomy, during which the ovaries were exposed but remained intact. […] Peripheral Quantitative CT (pQCT) scans were made of the proximal tibia metaphysis and the diaphysis. […]"}, "[4]": {"test_system": "ovariectomized (OVX) rats", "assay": "OVX rat study: in vivo DXA densitometry of lumbar spine and humerus", "parameters": "species or system Wistar rats", "conditions": "12 weeks, versus OVX control", "method": "as §2"}, "[5]": {"test_system": "ovariectomized (OVX) rats", "assay": "OVX rat study: ex vivo μCT analysis of tibial metaphysis and femur diaphysis", "assay_type": "in vivo, Wistar rats", "method": "(§3) A total of 264 Wistar female rats, ˜6 months old, were supplied by the Animal House at King Fahd Medical Research Center (KFMRC), KAU. Rats were housed in individual cages and maintained at 22° C. with a 12-h light/dark cycle. During the study period, rats were given standard rodent chow diet ad libitum (commercial rat cubes containing approximately 18% protein, 3% fat, 77% carbohydrate, and 2% of an inorganic-salt mixture with a vitamin supplement by weight, supplied by Grain Silos and Flour Mills Organization, Jeddah, Saudi Arabia) and water until the onset of intervention. Prior to surgery, rats were anesthetized with ketamine [(10% ketamine hydrochloride (80 mg/kg body weight), Cayman Chemical, Michigan, USA] and xylazine [(2% xylazine hydrochloride, 10 mg/kg body weight), Sigma-Aldrich Co., St. Louis, USA]. A single longitudinal skin incision was made on the dorsal midline at the level of the kidneys and both ovaries were ligated and removed to produce an ovariectomy in all OVX group animals. A SHAM-operated group, acting as a negative control for the effect of ovariectomy on bone parameters, underwent bilateral laparotomy, during which the ovaries were exposed but remained intact. […] The lycopene-supplemented groups were given lycopene (15, 30 and 45 mg/kg body weight per day) dissolved in corn oil by daily intra-gastric administration for the experimental period of 12 weeks. The SHAM, OVX and ALN control groups were given the same volume of corn oil without lycopene treatment. […] A 12-week randomized placebo-controlled study in order to examine the protective effects of lycopene supplementation on bone mass and fragility in OVX rats was concluded. Prior to surgery, body weight and bone mineral density (BMD) were obtained for all animals. Rats were randomized using a computer-generated randomization code into one of six groups: (1) sham-operated (SHAM; n=44); (2) ovariectomized control (OVX; n=44); (3) OVX lycopene-supplemented (15 mg/kg body weight per day) (n=44); (4) OVX lycopene-supplemented (30 mg/kg body weight per day) (n=44); (5) OVX lycopene-supplemented (45 mg/kg body weight per day) (n=44) and (6) OVX alendronate-treated (ALN) [2.0 μg/kg body weight per day subcutaneously (sc)] (n=44). Alendronate is an anti-resorptive agent for the treatment of osteoporosis and was used as a positive therapy control. […] All OVX groups were pair-fed with the SHAM group throughout the study to avoid the possible effects of ovariectomy-induced over-consumption and subsequent excessive weight gain. Treatment started 1 week after the surgery: this period of rest allowed the rats to recover from the stress associated with the surgery. In addition, after surgery, rats were administered Diclofenac sodium injection (20 mg/Kg body weight) to reduce the pain associated with the surgery. Rats were weighed and examined daily. Blood and urine samples were collected at baseline, during, and at the end of treatment for measurement of various BTMs and other analytes. In vivo dual energy x-ray absorptiometry (DXA) measurements were made for the bone mineral content (BMC) and BMD of the whole body, lumbar spine (L1-L4), and the right humerus, together with body composition at 12 weeks of treatment. One day following the post-test DXA assessments (at 12 weeks, 16 rats in each group), animals were euthanized by decapitation and right and left femurs were extracted for further biomechanical and histomorphometric analyses. Blood and urine samples were collected from all experimental groups to measure biochemical analytes and BTMs at baseline and 4, 8, and 12 weeks of treatment. Peripheral Quantitative CT (pQCT) scans were made of the proximal tibia metaphysis and the diaphysis. In vivo micro-computed tomographic (μCT) scans of the proximal tibia were obtained during the treatment period to monitor changes in bone mass and microarchitecture. […]"}, "[6]": {"test_system": "ovariectomized (OVX) rats", "assay": "OVX rat study: ex vivo pQCT and biomechanical testing of lumbar spine and femur", "assay_type": "in vivo, Wistar rats", "conditions": "12 weeks", "method": "as §3, with “One day following the post-test DXA assessments (at 12 weeks, 16 rats in each group), animals were euthanized by decapitation and right and left femurs were extracted for further biomechanical and histomorphometric analyses. Blood and urine samples were collected from all experimental groups to measure biochemical analytes and BTMs at baseline and 4, 8, and 12 weeks of treatment.” left out, “diaphysis.” for “diaphysis. In vivo micro-computed tomographic (μCT) scans of the proximal tibia were obtained during the treatment period to monitor changes in bone mass and microarchitecture.”"}, "[7]": {"test_system": "ovariectomized (OVX) rats", "assay": "OVX rat study: dynamic bone histomorphometry of tibial metaphysis and diaphysis", "assay_type": "in vivo, Wistar rats", "conditions": "ALN group, tibial diaphysis, for the most part", "method": "as §3"}, "[8]": {"conditions": "12 weeks, lycopene, ALN 2.0 μg/kg/day, P<0.001"}},
  "data": [
    {"smiles": "NCCCC(O)(P(=O)(O)O)P(=O)(O)O", "note": "[ALN, alendronate, reference compound]", "values": [
      {"measurement": "serum PTH values versus other groups", "setting": "[1]", "result": "significantly higher"},
      {"measurement": "OVX-induced increases in s-CTX and u-DPD levels", "setting": "[2]; P<0.001", "result": "prevented"},
      {"measurement": "s-OC and s-PINP levels compared with OVX control", "setting": "[2]; week 12, P<0.001", "result": "significantly decreased"},
      {"measurement": "OVX-induced bone loss (total and trabecular BMD, proximal tibia, pQCT)", "setting": "[3]", "result": "prevented"},
      {"measurement": "OVX-induced bone loss (BMC and BMD, lumbar spine and humerus, DXA)", "setting": "[4]", "result": "prevented"},
      {"measurement": "decrease in Tb.Sp, tibia metaphysis (μCT), compared with OVX group", "setting": "[5]; [8]", "result": 37.3, "unit": "%"},
      {"measurement": "increase in BV/TV, tibia metaphysis (μCT), compared with OVX group", "setting": "[5]; [8]", "result": 128.9, "unit": "%"},
      {"measurement": "increase in Tb.N, tibia metaphysis (μCT), compared with OVX group", "setting": "[5]; [8]", "result": 25.8, "unit": "%"},
      {"measurement": "relative bone volume (BV/TV) of the femur diaphysis (μCT)", "setting": "[5]; OVX rats, 12 weeks", "result": "nor lycopene or ALN treatment had significant effects"},
      {"measurement": "femoral cortical values for Ct.Th and Ct.Po (μCT)", "setting": "[5]; lycopene 30 and 45 mg/kg/day, ALN, versus SHAM and OVX groups", "result": "improved"},
      {"measurement": "OVX-induced decrease in cortical thickness", "setting": "[6]; lycopene particularly 45 mg/kg/day, alendronate 2.0 μg/kg/day", "result": "prevented"},
      {"measurement": "lumbar spine biomechanical / bone strength parameters", "setting": "[6]; lycopene particularly 30 and 45 mg/kg/day, ALN 2.0 μg/kg/day, P<0.05", "result": "significantly increased"},
      {"measurement": "OVX-induced effects on cortical bone indices", "setting": "[7]", "result": "also prevented"}
    ]}
  ]
}
